For 14 molecules, EC50, IC50 and Ki results are on record in ChEMBL document CHEMBL1131797, “4-hydroxy-5,6-dihydro-2H-pyran-2-ones.3. Bicyclic and hetero-aromatic ring systems as 3-position scaffolds to bind to S1' and S2' of the HIV-1 protease enzyme” (Bioorg Med Chem Lett, 1999).

In assay [1] the test system is CCRF-CEM. As to the kind of experiment: Antiviral activity was evaluated against HIV-infected CEM cells. The format is functional, cell-based. The note with it: Homo sapiens.
Assay [2] concerns the target T1, Human immunodeficiency virus type 1 protease (Human immunodeficiency virus 1, UniProt Q72874). As to the kind of experiment: Inhibitory concentration against human immunodeficiency virus type 1(HIV-1) protease at pH 4.7.
Assay [3] concerns the target T1, Human immunodeficiency virus type 1 protease. As to the kind of experiment: Inhibitory activity was evaluated against human immunodeficiency virus type 1(HIV-1) protease at pH 6.2.
The target is the same in assay [4]. The assay can be described thus: Inhibitory activity was evaluated against human immunodeficiency virus type 1(HIV-1) protease at pH 4.7.

For `CC(C)(C)n1c(SC2=C(O)OC(CCc3ccccc3)(c3ccccc3)CC2=O)nc2ccccc21` (configuration not stated), the EC50 in assay [1] is 61000 nM. This molecule also came in with an IC50 in assay [2] of 505 nM.

As to `CC(C)(C)c1cc2c(cc1SC1=C(O)OC(CCc3ccccc3)(c3ccccc3)CC1=O)CCC2` (configuration not stated), in assay [1], a half-maximal effect (EC50) was put at 22000 nM. In addition, the figures for the IC50 in assay [2] and in assay [3] were 9 nM and 130 nM, respectively.

`CC(C)(C)c1oc2ccccc2c1SC1=C(O)OC(CCc2ccccc2)(c2ccccc2)CC1=O` (configuration not stated) registered an EC50 in assay [1] of 10000 nM. Moreover, the results for the IC50 in assay [2] and in assay [3] were 18 nM and 211 nM, respectively.

As to `CC(C)(C)c1c(SC2=C(O)OC(CCc3ccccc3)(c3ccccc3)CC2=O)oc2ccccc12` (configuration not stated), the EC50 in assay [1] was 31000 nM. Also, the IC50 in assay [2] was found to be 11 nM; in assay [3], 210 nM.

In turn, `Cc1cc(SC2=C(O)O[C@](CCc3ccc(O)cc3)(C(C)C)CC2=O)c(C(C)(C)C)cc1CO` registered an EC50 in assay [1] of 500 nM. In assay [3], this molecule displayed an IC50 of 1 nM.

As to `O=C1CC(CCc2ccccc2)(c2ccccc2)OC(O)=C1Sc1cccs1` (configuration not stated), in assay [1], the EC50 is greater than 73000 nM. This molecule came in with an IC50 in assay [2] of 290 nM.

In turn, `Cc1ccc(C(C)(C)C)c(SC2=C(O)OC(CCc3ccccc3)(c3ccccc3)CC2=O)c1` (configuration not stated) showed an EC50 in assay [1] of 46000 nM.

The molecule `CC(C)(C)c1cc2c(cc1SC1=C(O)OC(CCc3ccccc3)(c3ccccc3)CC1=O)CCCC2` (configuration not stated) had an EC50 in assay [1] of 33000 nM. The same molecule yielded an IC50 in assay [2] of 28 nM.

Regarding `CC(C)(C)c1c(SC2=C(O)OC(CCc3ccccc3)(c3ccccc3)CC2=O)sc2ccccc12` (configuration not stated), the EC50 in assay [1] is greater than 66000 nM. The IC50 in assay [2] came to 7 nM; in assay [3] it was 17 nM.

For `CCc1c(SC2=C(O)OC(CCc3ccccc3)(c3ccccc3)CC2=O)sc2ccccc12` (configuration not stated), in assay [1], the EC50 is greater than 65000 nM. For the same molecule, in assay [2], the IC50 was determined as 28 nM.

In turn, `CC(C)[C@]1(CCc2ccc(O)cc2)CC(=O)C(Sc2sc3ccccc3c2C(C)(C)C)=C(O)O1` showed an EC50 in assay [1] of 1000 nM. Besides, in assay [3], the IC50 is less than 1 nM. Moreover, the Ki in assay [4] was less than 0.1 nM.

Turning to `O=C1CC(CCc2ccccc2)(c2ccccc2)OC(O)=C1Sc1cc2ccccc2s1` (configuration not stated), the EC50 in assay [1] was greater than 100000 nM. Besides, the IC50 in assay [2] was 363 nM.

On to `Cc1ccsc1SC1=C(O)OC(CCc2ccccc2)(c2ccccc2)CC1=O` (configuration not stated), for which the EC50 in assay [1] was greater than 100000 nM. The midpoint of inhibition in assay [2], the IC50, lay at 195 nM.

For `Cc1c(SC2=C(O)OC(CCc3ccccc3)(c3ccccc3)CC2=O)sc2ccccc12` (configuration not stated), in assay [1], the EC50 was greater than 100000 nM. In assay [2], this molecule displayed an IC50 of 74 nM.

As usually defined, the EC50 is the concentration needed to bring the measured effect to its halfway point. A low value points to a more potent agent. In general, IC50 refers to the concentration at which inhibition is half-maximal. A high value points to a need for much substance. Usually Ki stands for the dissociation constant of the complex between target and ligand, obtained from inhibition or displacement. A lower Ki goes with tighter binding.
